Measured values: patent US10947215B2, “Heteroaryl compounds and their use as therapeutic drugs” (Dong-A Socio Holdings Co., Ltd., priority 2015, dated 2021)

The compounds below were run on Ba/F3-CDM cells (Ba/F3 transfected with CD8-MerTK) (assay: In cell MER kinase assay, Ba/F3-CDM cell proliferation without IL-3 (Celltiter-Glo, GI50)). Settings: 48 hours, read-out: Cell growth inhibition (GI50).
Type: cell-based, murine
Method in brief: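 Ba/F3 cells expressing CD8-MerTK were grown without IL-3, so that proliferation depends on MerTK. Cells were pre-incubated 24 h, then exposed to compound for 48 h. Viability was read by CellTiter-Glo, with IL-3-supplemented Ba/F3 run in parallel as a nonspecific cytotoxicity control, and GI50 was derived.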

`CN1CCN(Cc2ccc(-c3ccc(CO[C@H]4CN(C)C[C@@H]4NC(=O)c4cc(-c5cnn(C)c5)cnc4N)cc3)cc2C(F)(F)F)CC1` [Example 437, 2-amino-5-(1-methyl-1H-pyrazol-4-yl)-N-((3S,4S)-1-methyl-4-((4′-((4-methylpiperazin-1-yl)methyl)-3′-(trifluoromethyl)-[1,1′-biphenyl]-4-yl)-methoxy)pyrrolidin-3-yl)nicotinamide] and `CN1CCN(Cc2ccc(-c3ccc(CO[C@H]4CCC[C@@H]4NC(=O)c4cc(-c5cnn(C)c5)cnc4N)cc3)cc2C(F)(F)F)CC1` [Example 197, 2-amino-5-(1-methyl-1H-pyrazol-4-yl)-N-((1S,2S)-2-((4′-((4-methylpiperazin-1-yl)methyl)-3′-(trifluoromethyl)-[1,1′-biphenyl]-4-yl)methoxy)-cyclopentyl)nicotinamide] cannot be ordered by GI50: < 100 nM for the first, < 100 nM for the second.

`CN1CCN(Cc2ccc(-c3ccc(CO[C@H]4CCC[C@@H]4NC(=O)c4cc(-c5ccc(F)c(F)c5)cnc4N)cc3)cc2)CC1` [Example 364] and `CN1CCN(Cc2ccc(-c3ccc(CO[C@H]4CCC[C@@H]4NC(=O)c4cc(-c5cc(F)nc(F)c5)cnc4N)cc3)cc2)CC1` [Example 384] cannot be ordered by GI50: < 100 nM for the first, < 100 nM for the second.

`CC(c1ccc(-c2ccc(CO[C@H]3CCC[C@@H]3NC(=O)c3cc(-c4cnn(C)c4)cnc3N)cc2)cc1)N1CCN(C)CC1` (stereo partly drawn) [Example 208, 2-amino-5-(1-methyl-1H-pyrazol-4-yl)-N-((1S,2S)-2-((4′-(1-(4-methylpiperazin-1-yl)ethyl)-[1,1′-biphenyl]-4-yl)methoxy)cyclopentyl)nicotinamide] and `C[C@@H](c1ccc(-c2ccc(CO[C@H]3CCC[C@@H]3NC(=O)c3cc(-c4ccc(F)nc4)cnc3N)cc2)cc1)N1CCN(C)CC1` [Example 222, 6-amino-6′-fluoro-N-((1S,2S)-2-((4′-((S)-1-(4-methylpiperazin-1-yl)ethyl)-[1,1′-biphenyl]-4-yl)methoxy)cyclopentyl)-[3,3′-bipyridine]-5-carboxamide] cannot be ordered by GI50: < 100 nM for the first, < 100 nM for the second.

`Cn1cc(-c2cnc(N)c(C(=O)N[C@H]3CCC[C@@H]3OCc3ccc(-c4ccc(C5(N6CCN(CCO)CC6)CC5)cc4)cc3)c2)cn1` [Example 220, 2-amino-N-((1S,2S)-2-((4′-(1-(4-(2-hydroxyethyl)piperazin-1-yl)cyclopropyl)-[1,1′-biphenyl]-4-yl)methoxy)cyclopentyl)-5-(1-methyl-1H-pyrazol-4-yl)nicotinamide] and `Cn1cc(-c2cnc(N)c(C(=O)N[C@H]3CCC[C@@H]3OCc3ccc(-c4ccc(CC5CCN(CCO)CC5)cc4)cc3)c2)cn1` [Example 240, 2-amino-N-((1S,2S)-2-((4′-((1-(2-hydroxyethyl)piperidin-4-yl)-methyl)-[1,1′-biphenyl]-4-yl)methoxy)cyclopentyl)-5-(1-methyl-1H-pyrazol-4-yl)-nicotinamide] cannot be ordered by GI50: < 100 nM for the first, < 100 nM for the second.

`CN1CCN(Cc2ccc(-c3ccc(CO[C@H]4CCC[C@@H]4NC(=O)c4nc(-c5cnn(C)c5)cnc4N)cc3)cc2)CC1` [Example 194, 3-amino-6-(1-methyl-1H-pyrazol-4-yl)-N-((1S,2S)-2-((4′-((4-methylpiperazin-1-yl)methyl)-[1,1′-biphenyl]-4-yl)methoxy)cyclopentyl)pyrazine-2-carboxamide] and `CN1CCN(Cc2ccc(-c3ccc(CO[C@H]4CCC[C@@H]4NC(=O)c4cc(-c5cnn(C)c5)cnc4N)c(F)c3)cc2)CC1` [Example 156, 2-amino-N-((1S,2S)-2-((3-fluoro-4′-((4-methylpiperazin-1-yl)-methyl)-[1,1′-biphenyl]-4-yl)methoxy)cyclopentyl)-5-(1-methyl-1H-pyrazol-4-yl)-nicotinamide] cannot be ordered by GI50: < 100 nM for the first, < 100 nM for the second.

Compared with `Cc1cccc(C)c1CO[C@H]1CCC[C@@H]1NC(=O)c1cc(-c2cnn(C)c2)cnc1N` [Example 15, 2-amino-N-((1S,2S)-2-((2,6-dimethylbenzyl)oxy)cyclopentyl)-5-(1-methyl-1H-pyrazol-4-yl)nicotinamide], `CN(C)c1ccc(-c2ccc(CO[C@H]3CCC[C@@H]3NC(=O)c3cc(-c4cnn(C)c4)cnc3N)cc2)cc1` [Example 137, 2-amino-N-((1S,2S)-2-((4′-(dimethylamino)-[1,1′-biphenyl]-4-yl)methoxy)cyclopentyl)-5-(1-methyl-1H-pyrazol-4-yl)nicotinamide] is lower in GI50: > 1000 nM for the first, < 100 nM for the second.

First: C[C@@H]1CN(C)CCN1Cc1ccc(-c2ccc(CO[C@H]3CCC[C@@H]3NC(=O)c3cc(-c4cnn(C)c4)cnc3N)cc2)cc1 [Example 187, 2-amino-N-((1S,2S)-2-((4′-(((R)-2,4-dimethylpiperazin-1-yl)-methyl)-[1,1′-biphenyl]-4-yl)methoxy)cyclopentyl)-5-(1-methyl-1H-pyrazol-4-yl)-nicotinamide]
Second: C[C@@H]1CN(Cc2ccc(-c3ccc(CO[C@H]4CCC[C@@H]4NC(=O)c4cc(-c5cnn(C)c5)cnc4N)cc3)cc2)C[C@H](C)N1 [Example 189, 2-amino-N-((1S,2S)-2-((4′-((cis-3,5-dimethylpiperazin-1-vi)-methyl)-[1,1′-biphenyl]-4-yl)methoxy)cyclopentyl)-5-(1-methyl-1H-pyrazol-4-yl)-nicotinamide]
The GI50 of the first is lower: < 100 nM for the first, 100 to 500 nM for the second.

`COc1ccc(-c2cnc(N)c(C(=O)N[C@H]3CCC[C@@H]3OCc3ccc(-c4ccc(CN5CCN(C)CC5)cc4)cc3)c2)cc1OC` [Example 383, 2-amino-5-(3,4-dimethoxyphenyl)-N-((1S,2S)-2-((4′-((4-methyl-piperazin-1-yl)methyl)-[1,1′-biphenyl]-4-yl)methoxy)cyclopentyl)nicotinamide] and `CN1CCN(Cc2ccc(-c3ccc(CO[C@H]4CCC[C@@H]4NC(=O)c4cc(-c5ccc(CO)cc5)cnc4N)cc3)cc2)CC1` [Example 369, 2-amino-5-(4-(hydroxymethyl)phenyl)-N-((1S,2S)-2-((4′-((4-methylpiperazin-1-yl)methyl)-[1,1′-biphenyl]-4-yl)methoxy)cyclopentyl)nicotinamide] cannot be ordered by GI50: < 100 nM for the first, < 100 nM for the second.

Compared with `Cc1ccc(CO[C@H]2CCC[C@@H]2NC(=O)c2cc(-c3ccc(CN4CCC(N5CCCC5)CC4)c(F)c3)cnc2N)cc1C` [Example 325, 2-amino-N-((1S,2S)-2-((3,4-dimethylbenzyl)oxy)cyclopentyl)-5-(3-fluoro-4-((4-(pyrrolidin-1-yl)piperidin-1-yl)methyl)phenyl)nicotinamide], `CN1CCN(Cc2ccc(-c3ccc(CO[C@H]4CCC[C@@H]4NC(=O)c4cc(-c5cnn(C)c5)cnc4N)cc3)cc2F)CC1` [Example 195, 2-amino-N-((1S,2S)-2-((3′-fluoro-4′-((4-methylpiperazin-1-yl)-methyl)-[1,1′-biphenyl]-4-yl)methoxy)cyclopentyl)-5-(1-methyl-1H-pyrazol-4-yl)-nicotinamide] is lower in GI50: > 1000 nM for the first, < 100 nM for the second.

`Cn1cc(-c2cnc(N)c(C(=O)N[C@H]3CCC[C@@H]3OCc3ccc(-c4ccc(CCN)cc4)cc3)c2)cn1` [Example 145, 2-amino-N-((1S,2S)-2-((4′-(2-aminoethyl)-[1,1′-biphenyl]-4-yl)methoxy)cyclopentyl)-5-(1-methyl-1H-pyrazol-4-yl)nicotinamide] and `Cn1cc(-c2cnc(N)c(C(=O)N[C@H]3CNC[C@@H]3OCc3ccc(-c4ccc(C(C)(C)N5CCN(CCO)CC5)cc4)cc3)c2)cn1` [Example 440] cannot be ordered by GI50: > 1000 nM for the first, > 1000 nM for the second.

`CC(c1ccc(-c2ccc(CO[C@H]3CCC[C@@H]3NC(=O)c3cc(-c4ccc(F)nc4)cnc3N)cc2)cc1)N1CCN(CCO)CC1` (stereo partly drawn) [Example 237, 6-amino-6′-fluoro-N-((1S,2S)-2-((4′-(1-(4-(2-hydroxyethyl)-piperazin-1-yl)ethyl)-[1,1′-biphenyl]-4-yl)methoxy)cyclopentyl)-[3,3′-bipyridine]-5-carboxamide] and `CC(c1ccc(-c2ccc(CO[C@H]3CCC[C@@H]3NC(=O)c3cc(-c4cncc(F)c4)cnc3N)cc2)cc1)N1CCN(CCO)CC1` (stereo partly drawn) [Example 236, 6-amino-5′-fluoro-N-((1S,2S)-2-((4′-(1-(4-(2-hydroxyethyl)-piperazin-1-yl)ethyl)-[1,1′-biphenyl]-4-yl)methoxy)cyclopentyl)-[3,3′-bipyridine]-5-carboxamide] cannot be ordered by GI50: < 100 nM for the first, < 100 nM for the second.

`CCc1cc(CO[C@H]2CNC[C@@H]2NC(=O)c2cc(-c3ccc(C(=O)NC4CCN(C)CC4)cc3)cnc2N)ccc1C` [Example 419, 2-amino-N-((3S,4S)-4-((3-ethyl-4-methylbenzyl)oxy)pyrrolidin-3-yl)-5-(4-((1-methylpiperidin-4-yl)carbamoyl)phenyl)nicotinamide] and `Cn1cc(-c2cnc(N)c(C(=O)N[C@H]3CNC[C@@H]3OCc3ccc(-c4ccc(CN5CCN(CCO)CC5)c(C(F)(F)F)c4)cc3)c2)cn1` [Example 444, 2-amino-N-((3S,4S)-4-((4′-((4-(2-hydroxyethyl)piperazin-1-vi)-methyl)-3′-(trifluoromethyl)-[1,1′-biphenyl]-4-yl)methoxy)pyrrolidin-3-yl)-5-(1-methyl-1H-pyrazol-4-yl)nicotinamide] cannot be ordered by GI50: > 1000 nM for the first, > 1000 nM for the second.

`CN1CCN(Cc2ccc(-c3ccc(CO[C@H]4COC[C@@H]4NC(=O)c4cc(-c5cnn(C)c5)cnc4N)cc3)cc2C(F)(F)F)CC1` [Example 449, 2-amino-5-(1-methyl-1H-pyrazol-4-yl)-N-((3S,4R)-4-((4′-((4-methylpiperazin-1-yl)methyl)-3′-(trifluoromethyl)-[1,1′-biphenyl]-4-yl)methoxy)-tetrahydrofuran-3-yl)nicotinamide] and `CN1CCN(Cc2ccc(-c3ccc(CO[C@H]4CCC[C@@H]4NC(=O)c4cc(-c5ccc(N6CCOCC6)cc5)cnc4N)cc3)cc2)CC1` [Example 381, 2-amino-N-((1S,2S)-2-((4′-((4-methylpiperazin-1-yl)methyl)-[1,1′-biphenyl]-4-yl)methoxy)cyclopentyl)-5-(4-morpholinophenyl)nicotinamide] cannot be ordered by GI50: < 100 nM for the first, < 100 nM for the second.
